{"source": "patent US20200121651A1", "about": "“Pramipexole for Use in the Treatment of Pain” (STC.UNM, priority 2018, published 2020)", "key": {"[1]": {"system": "allodynia in CCI mice", "settings": "for effect on allodynia (hindpaw absolute threshold): male CCI mice, i.v. injection day 10 post surgery, identical ipsilateral and contralateral", "protocol": "The current report analyzed adult (10-16 week old) male C57BL/6 mice (wildtype; FFID: IMSR_JAX:000664) purchased from Jackson Laboratories (Bar Harbor, Me., USA). Mice were maintained on a standard 12:12 light/dark cycle (lights on from 0600 hours to 1800 hours) in a temperature controlled environment (23°±2° C.) for the duration of the study. Additionally, mice were housed in groups of 4-5 mice/cage, of which all mice were routinely monitored by the animal care staff under the direction of the institutional veterinarian, fed standard rodent chow and water ad libitum, with cages and bedding changed every 7 days. All procedures were approved by the Institutional Animal Care and Use Committee (IACUC) of the University of New Mexico Health Sciences Center, conducted in accordance to the NIH Guidelines for the Care and Use of Laboratory Animals, and closely adhered to guidelines from the International Association for the Study of Pain for the use of animals in research (Foundation for Biomedical Research, The Biomedical Investigator's Handbook for Researchers Using Animal Models. Washington, D.C.: FBR, 1987. WWW: http://www.fbresearch.org/).\nThis study utilized a modified version of a well-established rat peripheral nerve injury model in which pathological sensitivity to light touch, clinically termed allodynia, is induced through a chronic constriction injury (CCI) (Bennett and Xie 1988). […] Under isoflurane anesthesia (1.5-2.0% volume in oxygen, 2.0 l/min), the dorsal left thigh was shaved and cleaned using 70% Ethanol (EtOH) that was air dried prior to surgery. Utilizing a small incision over the posterior thigh, remaining […] below the femur bone, from hip bone to the patella, the muscle fascia of the mouse was exposed. Using aseptic procedures, a blunt dissection was performed to carefully isolate the sciatic nerve by separating the overlying muscular fascia. Sterile plastic probes were then used to locate and lift the sciatic nerve from its pocket within the muscle tissue. Mice were then subjected to unilateral loose ligation of the sciatic nerve with three 5-0 chromic gut sutures (Ethicon; Somerville, N.J., Cat #634G) which were snugly tied around the sciatic nerve (avoiding pinching) proximal to the trifurcation with 1.5 mm spacing between sutures. Throughout the duration of the surgery, sterile 0.9% isotonic saline (Hospira; Cat #NDC 0409-4888-03) was irrigated over the sciatic nerve to prevent dehydration. Sham surgery followed the same CCI surgical procedure identically but without ligation. Upon ligation, the sciatic nerve was gently placed back into its correct anatomical position using the sterile plastic probes, and the overlying muscle fascia was stitched closed using one 4-0 sterile silk sutures (Ethicon; Somerville, N.J., Cat #83G). Wound clips (Kent Scientific Corp.; Cat #INS750344) were then utilized to seal the incision closed at which point the surgical procedure was complete. […] Body weight was monitored prior to and after surgery.\nUpon a 7-14 day acclimation to the testing environment, mice were subjected to a habituation period. The habituation period included placing the mice atop a testing rack within the first 4 hours of the light cycle (lights on from 0600 hours to 1800 hours) in a sound and temperature (23°±2° C.) controlled environment, allowing full access to the plantar hindpaw. Mice were exposed to four separate habitation periods for approximately 45 min/day."}, "[2]": {"system": "TLR4-mediated IL-1β release in THP-1 cells", "settings": "for IL-1β release in the presence of LPS stimulation / basal cellular levels of IL-1β: THP-1 cells; for basal cellular levels of IL-1β: pramipexole alone, no LPS", "protocol": "The assay was performed according to the manufacturer's instructions."}, "[3]": {"settings": "CCI mice, i.v. day 10 post surgery"}}, "note": "Like-named read-outs stand apart in the source and are kept apart here."}
{"smiles": "CCCN[C@H]1CCc2nc(N)sc2C1", "note": "[Pramipexole, (6S)-6-N-propyl-4,5,6,7-tetrahydro-1,3-benzothiazole-2,6-diamine]", "values": [{"measurement": "efficacy on hindpaw withdraw thresholds, hours 24-72 post-injection", "setting": "[1]; CCI mice, i.v. 0.5 μg", "result": "complete dissipation in the efficacy"}, {"measurement": "time post-injection by which mice returned to allodynia", "setting": "[1]; CCI mice, i.v. 0.5 μg", "result": "≤ 24", "unit": "h"}, {"measurement": "time to complete reversal from allodynia", "setting": "[1]; CCI mice, i.v. 0.5 μg, day 10 post-surgery", "result": "≤ 2", "unit": "h"}, {"measurement": "efficacy on hindpaw withdraw thresholds, hours 24-72 post-injection", "setting": "[1]; CCI mice, i.v. 5 μg", "result": "complete dissipation in the efficacy"}, {"measurement": "time post-injection by which mice returned to allodynia", "setting": "[1]; CCI mice, i.v. 5 μg", "result": "≤ 24", "unit": "h"}, {"measurement": "time to complete reversal from allodynia", "setting": "[1]; CCI mice, i.v. 5 μg, day 10 post-surgery", "result": "≤ 2", "unit": "h"}, {"measurement": "duration of efficacy", "setting": "[1]; [3]", "result": "up to 2 hours"}, {"measurement": "time of maximal efficacy post-injection", "setting": "[1]; [3]", "result": 2, "unit": "h"}, {"measurement": "time to complete reversal from allodynia", "setting": "[1]; CCI mice, i.v. day 10 post surgery, dose not given in FIG. 1 legend", "result": "≤ 1", "unit": "h"}, {"measurement": "effect on allodynia (hindpaw absolute threshold)", "setting": "[1]", "result": "completely reversed from allodynia"}, {"measurement": "effect on allodynia (hindpaw absolute threshold)", "setting": "[1]; listed as pramipexole", "result": "completely abolishes allodynia"}, {"measurement": "IL-1β release in the presence of LPS stimulation", "setting": "[2]; 5 pg pramipexole plus LPS", "result": "significantly blunts"}, {"measurement": "IL-1β release in the presence of LPS stimulation", "setting": "[2]; 500 pg pramipexole plus LPS", "result": "significantly blunts"}, {"measurement": "basal cellular levels of IL-1β", "setting": "[2]; 5 pg", "result": "does not significantly alter"}, {"measurement": "basal cellular levels of IL-1β", "setting": "[2]; 500 pg", "result": "does not significantly alter"}, {"measurement": "TLR4-IL-1b activation pathway", "setting": "[2]; cell-based assay using human THP-1 cells", "result": "inhibits the TLR4-IL-1b activation pathway"}]}
